# Experimental data published in US20170176439A1, “MARKERS AND THERAPEUTIC INDICATORS FOR GLIOBLASTOMA MULTIFORME (GBM)” (Institute for Systems Biology, priority 2014, published 2017).
# Tests used:
# [1] = tested on: C-terminal phosphorylation of SMAD2; test: C-terminal phosphorylation of SMAD2 in U87 cells; type: cell-based
# Procedure: (§1) To identify markers for subjects that may benefit from this treatment, astrocytoma cell line U87 was serum starved overnight and treated with 10 ng/ml TGF-β1 for 40 hrs. […] However, as serum contains many essential elements and growth factors, the effect of serum starvation on cells might not be specific to the inhibition of TGF-β signaling. Therefore, we employed a TGF-β-inhibitor (SB 431542) known to interfere with the C-terminal phosphorylation of SMAD2. […] Thus in subsequent SRM analysis, TGF-β-inhibitor was used instead of serum starving.
# [2] = tested on: primary GBM cells from SN143 tumor tissues; test: Flow cytometry of GBMSig expression in primary GBM cells from SN143 tumor tissue with TGF-β or its inhibitor; type: cell-based
# Procedure: The expression of the selected GBMSig proteins responsive to TGF-β viz. SLC16A1, HMOX1, MRC2, SLC16A3, CD47, and CD97 was also tested in primary GBM cells from SN143 tumor tissues in the presence of TGF-β or its inhibitor by flow cytometry.
# [3] = tested on: healthy neural stem cells (NSCs); test: GBMSig cell-surface expression in healthy NSCs with TGF-β1 or inhibitor; type: cell-based
# Procedure: [The source words this procedure for another cell line and reports this cell line under the same test.] The expression of the selected GBMSig proteins responsive to TGF-β viz. SLC16A1, HMOX1, MRC2, SLC16A3, CD47, and CD97 was also tested in primary GBM cells from SN143 tumor tissues in the presence of TGF-β or its inhibitor by flow cytometry. […] EGFR, EGFRVIII, and PTEN altered in GBM can create further heterogeneities in TGF-β responsiveness as observed through the expression of various GBMSig proteins.
# [4] = tested on: U87 cell line; test: d-SRM assays of GBMSig protein expression in U87 cell line after TGF-β vs TGF-β-inhibitor treatment; type: cell-based
# Procedure: Novel TGF-β responsive elements were identified among GBMSig through experimental validation. […] U87 cells were treated with TGF-β1 or its inhibitor alone or sequentially with inhibitor followed by TGF-β1. Changes in expressions of GBMSig proteins following such treatments were measured by SRM assays.
# as §1
# [5] = tested on: U-87 cells; conditions: U-87, flow cytometry
# Procedure: In an alternate assay, six GBMSig proteins viz. SLC16A1, MRC2, CD47, SLC16A3, HMOX1, and CD97 were tested as downstream factors of TGF-β signaling by flow cytometry. TGF-β or TGF-β inhibitor treated intact U-87 cells were analyzed by flow cytometry and the ratio of the respective GBMSig expression in response to TGF-β1 over its inhibitor was obtained.
# [6] = tested on: isogenic cell lines of U87 (EGFR, EGFRVIII, PTEN); test: Cell-surface GBMSig expression in response to TGF-β in U87 isogenic cell lines; type: cell-based
# Procedure: Isogenic cell lines of U87 where key proliferative genes such as EGFR and EGFRVIII are overexpressed alone or in combination with PTEN were tested for molecular responsiveness of isogenic cell lines towards TGF-β treatment. In EGFR and EGFRVIII isogenic cell lines, there was elevated surface expression of SLC16A1 and HMOX1 in response to TGF-β treatment. PTEN expression, however, inhibited this effect, indicating possible involvement of a tumor suppressor PTEN in modulating the surface expression of these proteins in GBM. On the other hand, MRC2 and CD47 were up regulated in response to TGF-β treatment when PTEN was overexpressed.
# Commonly mutated GBM genes include EGFR, EGFRVIII, and PTEN. Four isogenic cell lines of U87 in which these genes are expressed alone or in combinations of EGFRVIII and PTEN or EGFR and PTEN via a stably integrated retroviral vector were used (Gini, B., et al., Clin Cancer Res. (2013) 19:5722-5732).
# There was an increase in the cell-surface expression of CD47, SLC16A3, MRC2, HMOX1 and SLC16A1 in response to TGF-β in all U87 isogenic cell lines similar to that of the parental cell line.
# [7] = U87 isogenic overexpressing EGFR
# [8] = U87 isogenic overexpressing EGFRVIII
# [9] = primary GBM cells from SN143 tissue, flow cytometry
compound,measurement,setting,value
NC(=O)c1ccc(-c2nc(-c3ccc4c(c3)OCO4)c(-c3ccccn3)[nH]2)cc1 [SB 431542],C-terminal phosphorylation of SMAD2,[1]; cells in normal media (DMEM+10% FCS) supplemented with inhibitor,dampened or diminished
same,increase in surface expression of HMOX1 in response to TGF-β-inhibitor treatment relative to TGF-β treatment,[2]; SN143 tumor-derived GCSC populations,30%
same,"expression of MRC2, CD47, SLC16A3 and CD97 after TGF-β-inhibitor treatment",[3]; NSCs,increased expression
same,"effect on SLC16A1, HMOX1 and CD97 expression",[3]; healthy NSCs,little or no effect
same,expression of CD47 in response to TGF-β-inhibitor treatment compared to TGF-β1 treatment,[3]; healthy NSCs,0.61 fold
same,expression of MRC2 in response to TGF-β-inhibitor treatment compared to TGF-β1 treatment,[3]; healthy NSCs,0.19 fold
"TGF-β1: TGF-β1, inducer of epithelial to mesenchymal transition, used at 10 ng/ml to treat cells",C-terminal phosphorylation of SMAD2,"[1]; U87 serum starved overnight, 10 ng/ml TGF-β1 for 40 hrs, in comparison to cells in serum-free media",increased
same,CD109 expression following TGF-β treatment relative to TGF-β-inhibitor alone,[4],2.09 fold
same,CLCC1 expression following TGF-β treatment relative to TGF-β-inhibitor alone,[4],2.26 fold
same,CRTAP expression following TGF-β treatment relative to TGF-β-inhibitor alone,[4],2.12 fold
same,DDR2 expression following TGF-β treatment relative to TGF-β-inhibitor alone,[4],3.53 fold
same,ITGA7 expression following TGF-β treatment relative to TGF-β-inhibitor alone,[4],9.45 fold
same,MGST1 expression following TGF-β treatment relative to TGF-β-inhibitor alone,[4],2.77 fold
same,MRC2 expression following TGF-β treatment relative to TGF-β-inhibitor alone,[4],3.06 fold
same,PTGFRN expression following TGF-β treatment relative to TGF-β-inhibitor alone,[4],2.18 fold
same,SLC16A1 expression following TGF-β treatment relative to TGF-β-inhibitor alone,[4],2.05 fold
same,TGFBI expression following TGF-β treatment relative to TGF-β-inhibitor alone,[4],10.54 fold
same,TNC expression following TGF-β treatment relative to TGF-β-inhibitor alone,[4],6.55 fold
same,"enrichment of CD47, VCAM1, MYOF, ABCA1, CD44, S100A10, CA12 and SLC16A3 on TGF-β treatment vs. TGF-β-inhibitor treatment",[4],> 1.3 fold
same,"expression of CD97, SCAMP3, PDIA4, CD99, ABCA1, TMX1, RTN4 and CD151 following TGF-β treatment in comparison to inhibitor treatment",[4],remained largely unchanged
same,expression of the 11 proteins when TGF-β-inhibitor treated cells were retreated with TGF-β,[4],overexpressed
same,"expression of ASPH, NRP1, CD276 and HMOX1 following TGF-β treatment",[4]; vs inhibitor treatment,relatively reduced
same,"increase of ratio of cell-surface CD47, TGF-β over TGF-β inhibitor",[5],40%
same,"increase of ratio of cell-surface HMOX1, TGF-β over TGF-β inhibitor",[5],20%
same,"increase of ratio of cell-surface MRC2, TGF-β over TGF-β inhibitor",[5],25%
same,"increase of ratio of cell-surface SLC16A1, TGF-β over TGF-β inhibitor",[5],20%
same,"increase of ratio of cell-surface SLC16A3, TGF-β over TGF-β inhibitor",[5],30%
same,"increase of ratio of cell-surface CD97, TGF-β over TGF-β inhibitor",[5]; essentially no change,1.1 fold
same,expression of HMOX1 in response to TGF-β,[6]; EGFR+PTEN cells,1.058 fold
same,expression of SLC16A1 in response to TGF-β,[6]; EGFR+PTEN cells,0.724 fold
same,expression of CD97,[6]; EGFRVIII alone,0.75±0.010 fold
same,expression of SLC16A3,[6]; EGFRVIII alone,0.97 fold
same,expression of CD97,[6]; EGFRVIII+PTEN cells,1.51 fold
same,expression of HMOX1 in response to TGF-β,[6]; EGFRVIII+PTEN cells,1.48 fold
same,expression of SLC16A1 in response to TGF-β,[6]; EGFRVIII+PTEN cells,1.19 fold
same,expression of SLC16A3,[6]; EGFRVIII+PTEN cells,1.3 fold
same,increase in expression of HMOX1 in response to TGF-β compared to the parental cell line,[6]; [7],2.69 fold
same,increase in expression of SLC16A1 in response to TGF-β compared to the parental cell line,[6]; [7],1.5±0.028 fold
same,increase in expression of HMOX1 in response to TGF-β compared to the parental cell line,[6]; [8],2.13 fold
same,increase in expression of SLC16A1 in response to TGF-β compared to the parental cell line,[6]; [8],1.75 fold
same,"cell-surface expression of CD47, SLC16A3, MRC2, HMOX1 and SLC16A1 in response to TGF-β","[6]; all U87 isogenic cell lines, similar to parental cell line",increase
same,MRC2 and CD47 expression in response to TGF-β treatment,[6]; when PTEN was overexpressed,up regulated
same,expression of HMOX1 when treated with TGF-β1 compared to its inhibitor,[2]; [9],0.77 fold
same,expression of MRC2 when treated with TGF-β1 compared to its inhibitor,[2]; [9],1.62 fold
same,expression of SLC16A1 when treated with TGF-β1 compared to its inhibitor,[2]; [9],0.79 fold
same,"changes in cell-surface expression of SLC16A1, HMOX1, MRC2, CD47, SLC16A3 and CD97 in response to TGF-β treatment",[3]; NSCs,no significant changes
same,"effect on SLC16A1, HMOX1 and CD97 expression",[3]; healthy NSCs,little or no effect
